Assay [1] concerns Mus musculus. As to the kind of experiment: Induction of cytosolic Glutathione S-transferase activity per mg of protein in A/J mouse liver at 20 mg, po for once every 2 days for total three doses measured after 24 hrs of last dose. Type of assay: functional.
Assay [2] deals with Mus musculus. As to the kind of experiment: Induction of cytosolic Glutathione S-transferase activity per mg of protein in A/J mouse small bowel mucosa at 20 mg, po for once every 2 days for total three doses measured after 24 hrs of last dose. Format: functional.
Assay [3] relates to Mus musculus. As to the kind of experiment: Induction of cytosolic Glutathione S-transferase activity per mg of protein in A/J mouse forestomach at 20 mg, po for once every 2 days for total three doses measured after 24 hrs of last dose. Type of assay: functional, Stomach.
Assay [4] has as its system Mus musculus. As to the kind of experiment: Ratio of drug to control in induction of cytosolic Glutathione S-transferase activity per mg of protein in A/J mouse liver at 20 mg, po for once every 2 days for total three doses measured after 24 hrs of last dose. Format: functional.
For assay [5], the system named is Mus musculus. As to the kind of experiment: Ratio of drug to control in induction of cytosolic Glutathione S-transferase activity per mg of protein in A/J mouse small bowel mucosa at 20 mg, po for once every 2 days for total three doses measured after 24 hrs of last dose. Type of assay: functional.
Assay [6] concerns Mus musculus. As to the kind of experiment: Ratio of drug to control in induction of cytosolic Glutathione S-transferase activity per mg of protein in A/J mouse forestomach at 20 mg, po for once every 2 days for total three doses measured after 24 hrs of last dose. Type of assay: functional, Stomach.

Consider `C=C1CC[C@@H]2O[C@]2(C)CC[C@@H]2[C@@H]1CC2(C)C`, for which the Activity in the assay with Mus musculus [1] was 2.13 µmol/min; in the assay with Mus musculus [2], 1.2 µmol/min; with Mus musculus [3], 0.59 µmol/min. The Ratio was determined as 2.88 in the assay on Mus musculus [4], 4.8 with Mus musculus [5] and 0.95 in the assay with Mus musculus [6].

As for `C/C1=C\CC[C@@]2(C)O[C@@H]2CC(C)(C)/C=C/C1`, the values for the Activity in the assay with Mus musculus [1], in the assay with Mus musculus [2] and in the assay with Mus musculus [3] were 1.54 µmol/min, 0.81 µmol/min and 0.77 µmol/min, respectively. For the same compound, the Ratio came to 2.08 with Mus musculus [4], 3.24 in the assay with Mus musculus [5] and 1.24 in the assay on Mus musculus [6].

`C/C1=C\CC/C(C)=C/CC(C)(C)/C=C/C1` [ALPHA-HUMULONE]: the Activity stood at 1.47 µmol/min with Mus musculus [1], 0.63 µmol/min with Mus musculus [2] and 0.63 µmol/min in the assay with Mus musculus [3]. Moreover, the Ratio with Mus musculus [4] turned out to be 1.99; in the assay on Mus musculus [5] it was 2.52; in the assay on Mus musculus [6], 1.02.

With `C=C1CC/C=C(\C)CC[C@@H]2[C@@H]1CC2(C)C` [BETA-CARYOPHYLLENE], the Activity stood at 1.92 µmol/min with Mus musculus [1], 0.75 µmol/min in the assay with Mus musculus [2] and 0.77 µmol/min in the assay on Mus musculus [3]. The Ratio in the assay on Mus musculus [4] worked out at 2.59; in the assay with Mus musculus [5] it was 3; in the assay with Mus musculus [6] it was 1.24.

In the case of `C=CCc1ccc(O)c(OC)c1` [EUGENOL], the Activity is 0.93 µmol/min in the assay with Mus musculus [1], 0.59 µmol/min in the assay with Mus musculus [2] and 0.75 µmol/min with Mus musculus [3]. Further, the Ratio in the assay with Mus musculus [4] is 1.26; with Mus musculus [5] it was 2.36; in the assay with Mus musculus [6], 1.21.
